Test results as given in PubChem BioAssay (NCI).
Where “and” joins values, the source holds several entries; their conditions need not be identical. Equal values may be shown once.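 Compound exposure: 48 hours, 5 concentrations, 96-well plates. At the GI50, growth is halved. TGI: total growth inhibition.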

Columns and labels:
Test in all cases: NCI tumour cell line growth inhibition, 48 h
HOP-62 NSCLC = tested on: HOP-62 NSCLC
ACHN renal = tested on: ACHN renal
SF-268 CNS = tested on: SF-268 CNS
SNB-19 CNS = tested on: SNB-19 CNS
A549 NSCLC = tested on: A549 NSCLC
SK-MEL-5 melanoma = tested on: SK-MEL-5 melanoma
NCI-H460 lung = tested on: NCI-H460 lung
CCRF-CEM leukemia = tested on: CCRF-CEM leukemia
UO-31 renal = tested on: UO-31 renal
NCI/ADR-RES ovarian = tested on: NCI/ADR-RES ovarian

SMILES	TGI (HOP-62 NSCLC)	TGI (ACHN renal)	TGI (SF-268 CNS)	TGI (SNB-19 CNS)	TGI (A549 NSCLC)	TGI (SK-MEL-5 melanoma)	TGI (NCI-H460 lung)	TGI (CCRF-CEM leukemia)	TGI (UO-31 renal)	TGI (NCI/ADR-RES ovarian)	GI50 (NCI/ADR-RES ovarian)	GI50 (ACHN renal)	GI50 (SNB-19 CNS)	GI50 (A549 NSCLC)	GI50 (SK-MEL-5 melanoma)	GI50 (CCRF-CEM leukemia)	GI50 (UO-31 renal)	GI50 (HOP-62 NSCLC)	GI50 (SF-268 CNS)	GI50 (NCI-H460 lung)
O=C(CC1=Nc2nnc(-c3nnc4n3C(=O)C(CC(=O)C3CC3)=N4)n2C1=O)C1CC1	> 100 µM	> 100 µM	> 100 µM	> 100 µM	> 100 µM	> 100 µM	> 100 µM	> 100 µM	> 100 µM											
C[C@]12CCC3=NCCN3C1=CC[C@@H]1[C@@H]2CC[C@@]2(C)[C@H]1CC[C@]2(C)O	> 100 µM	> 100 µM	> 100 µM	> 100 µM	> 100 µM	35.6 µM	> 100 µM		> 100 µM	> 100 µM										
C=C(Cl)[C@@](Cl)(CBr)CC[C@@H](Br)C(C)(C)Cl	0.606 µM and 0.304 µM	0.562 µM and 0.47 µM	3.01 µM and 0.838 µM	1.54 µM and 1.52 µM	4.12 µM and 4.11 µM	> 100 µM and 21.3 µM		> 100 µM and 53.6 µM	1.85 µM and 2.01 µM		3.05 µM	0.184 µM	0.358 µM	1.67 µM	19.5 µM	20.3 µM	0.428 µM			
OCC(O)C(O)C(O)C(O)c1nn[nH]n1 (stereo unspecified)	> 100 µM	> 100 µM	> 100 µM		> 100 µM	> 100 µM	> 100 µM	> 100 µM	> 100 µM											
CCCCCCCCCCCCOC1C(C(CC(=O)N2CCN(Cc3ccc4c(c3)OCO4)CC2)NS(=O)(=O)c2cc(Cl)cc(Cl)c2)OC2OC(C)(C)OC21 (stereo unspecified)	> 100 µM	> 100 µM	> 91.5 µM	> 100 µM	> 100 µM	> 100 µM	35 µM		> 100 µM	> 100 µM	> 100 µM	33.8 µM	44.7 µM	8.48 µM	39.3 µM		32.9 µM	86.5 µM	12.3 µM	5.44 µM
NNC(=O)N/N=C1\CN(c2ccc(Cl)cc2Cl)C(=O)C(=O)C1c1nc2ccccc2o1 (stereo unspecified)	> 100 µM	> 100 µM	> 100 µM	> 100 µM	> 100 µM	> 100 µM	> 100 µM	> 100 µM	> 100 µM											
Oc1ccccc1C=Nc1nc(OCc2ccccc2)nc2[nH]ncc12	84.8 µM	> 100 µM	77.5 µM	> 100 µM	> 100 µM	29.7 µM	> 100 µM		> 100 µM	78.8 µM	28.5 µM	28 µM	37.7 µM	38.7 µM	15.1 µM		30.5 µM	26.2 µM	20.1 µM	24.4 µM
COc1ccc(C(=O)O/N=C2/CCCCC2CN(C)C)cc1 (stereo unspecified)	> 100 µM	> 100 µM			> 100 µM	> 100 µM	> 100 µM	> 100 µM	> 100 µM											
COc1cc(CCc2ccc(OC(C)=O)cc2)cc(OC)c1OC	> 100 µM	> 100 µM	> 100 µM	> 100 µM	> 100 µM	> 100 µM	> 100 µM	> 100 µM	> 100 µM											
COc1cc(N(CCC#N)CCC#N)ccc1/C(N=Nc1ccc(C(=O)O)cc1)=N/NC(=O)c1cc(Br)ccc1O		> 150 µg/mL	119 µg/mL	> 150 µg/mL	> 150 µg/mL	> 150 µg/mL	> 150 µg/mL	> 150 µg/mL	> 150 µg/mL	> 150 µg/mL	49.4 µg/mL	108 µg/mL	> 150 µg/mL	79.4 µg/mL	69.7 µg/mL	82.4 µg/mL	107 µg/mL		29.9 µg/mL	40.9 µg/mL
O=C(/C(=C/c1ccc(O)cc1)c1ccccc1)c1ccccc1	33.9 µM	29.6 µM	34.6 µM		41.7 µM	28.3 µM	38.4 µM	80.2 µM	29.4 µM											
COCC1N=C(c2cc(OC)c(OC)c(OC)c2-c2cc3c(cc2[C@H](C)O)OCO3)O[C@H]1c1ccccc1 (stereo partly specified)		> 100 µM		> 100 µM	> 100 µM	> 100 µM		> 10 µM	> 100 µM											
Nc1nc(=S)[nH]c(C(=O)Nc2nccs2)c1-c1ccccc1	> 100 µM	> 100 µM	> 100 µM	> 100 µM	> 100 µM	> 100 µM	> 100 µM	> 100 µM	> 100 µM											
O=c1[nH]c2ccc([N+](=O)[O-])cc2nc1/C(=N/Nc1ccccc1)C(O)c1ccco1 (stereo unspecified)	> 100 µM	> 100 µM	> 100 µM	> 100 µM	> 100 µM	90.6 µM	> 100 µM	> 100 µM	> 100 µM											
Cc1nc2c(Br)cc(Br)cc2c(=O)n1-c1ccccc1NC1OCC(O)C(O)C1O (stereo unspecified)	> 100 µM and 35.7 µM	> 100 µM and 51.8 µM	> 100 µM and 34 µM	> 100 µM	> 100 µM and 34.6 µM	> 100 µM and 31.3 µM		56.7 µM and > 56.5 µM	> 100 µM	> 100 µM	43.3 µM and > 100 µM			34.8 µM and 10.1 µM	36.9 µM and 13.4 µM			> 100 µM and 10.3 µM	45.1 µM and 5.56 µM	
Nc1ncc(C2[C@H](CNC(=O)c3cc(Br)c[nH]3)C(CNC(=O)c3cc(Br)c[nH]3)[C@@H]2c2cnc(N)[nH]2)[nH]1 (stereo partly specified)	> 50 µM	> 50 µM	> 50 µM		> 50 µM	> 50 µM	> 50 µM	> 50 µM	> 50 µM	> 50 µM	> 50 µM	> 50 µM		> 50 µM	> 50 µM	> 50 µM	> 50 µM	> 50 µM	> 50 µM	> 50 µM
Nc1ccc(C(=O)/C=C/c2ccccc2O)cc1	> 100 µM	> 100 µM	> 100 µM	> 100 µM	> 100 µM	> 100 µM	> 100 µM	> 100 µM	> 100 µM											
[Cl-].[Gd+3].[O-]/N=C(\c1ccccc1)c1ccccn1.[O-]/N=C(\c1ccccc1)c1ccccn1.[O-]/N=C(\c1ccccc1)c1ccccn1	> 100 µM	> 100 µM	> 100 µM	> 100 µM	> 100 µM	> 100 µM	> 100 µM	> 100 µM	> 100 µM			64.3 µM	93.2 µM	55.2 µM	48.9 µM	34.3 µM	35.3 µM	41.8 µM	55.6 µM	50.7 µM
